From PubChem BioAssay (NCI)
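A five-concentration, 48-hour dose response in 96-well plates underlies each endpoint, interpolated linearly between surrounding concentrations. TGI is the concentration that stops growth completely.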

What was measured:
Assay in all cases: NCI tumour cell line growth inhibition, 48 h
[1] = tested on: DMS 114 small cell lung
[2] = tested on: DMS 273 small cell lung
[3] = tested on: SF-268 CNS
[4] = tested on: COLO 205 colon
[5] = tested on: SNB-78 CNS
[6] = tested on: NCI/ADR-RES ovarian
[7] = tested on: SW-620 colon
[8] = tested on: HCC-2998 colon
[9] = tested on: SF-539 CNS
[10] = tested on: OVCAR-5 ovarian
[11] = tested on: UACC-257 melanoma
[12] = tested on: P388/ADR leukemia
[13] = tested on: SK-MEL-28 melanoma
[14] = tested on: OVCAR-4 ovarian
[15] = tested on: HCT-15 colon
[16] = tested on: SK-OV-3 ovarian
[17] = tested on: IGROV1 ovarian
[18] = tested on: KM20L2 colon
[19] = tested on: A498 renal
[20] = tested on: MALME-3M melanoma
[21] = tested on: UO-31 renal
[22] = tested on: HL-60(TB) leukemia
[23] = tested on: SN12K1 renal
[24] = tested on: CCRF-CEM leukemia
[25] = tested on: XF 498 CNS
[26] = tested on: HOP-62 NSCLC
[27] = tested on: NCI-H23 lung
[28] = tested on: K-562 leukemia
[29] = tested on: HOP-18 NSCLC
[30] = tested on: HT29 colon
[31] = tested on: LOX IMVI melanoma
[32] = tested on: EKVX NSCLC
[33] = tested on: SNB-19 CNS
[34] = tested on: SK-MEL-2 melanoma
[35] = tested on: A549 NSCLC
[36] = tested on: SK-MEL-5 melanoma
[37] = tested on: RPMI-8226 leukemia
[38] = tested on: HCT-116 colon
[39] = tested on: RXF 393 renal
[40] = tested on: U251 CNS
[41] = tested on: UACC-62 melanoma
[42] = tested on: SN12C renal
[43] = tested on: MOLT-4 leukemia
[44] = tested on: SNB-75 CNS
[45] = tested on: KM12 colon
[46] = tested on: HOP-92 NSCLC
[47] = tested on: NCI-H226 lung
[48] = tested on: NCI-H460 lung
[49] = tested on: OVCAR-3 ovarian
[50] = tested on: SF-295 CNS
[51] = tested on: OVCAR-8 ovarian
[52] = tested on: P388 leukemia
[53] = tested on: MCF7 breast

Question: For `COc1ccc2nc3c(C(=O)NCCN(C)C)cccc3cc2c1`, which TGI [1] is on record?
Answer: 4.48 µM

Question: What about the TGI [2] of the same molecule?
Answer: 6.15 µM

Question: And the TGI [3]?
Answer: 12.1 µM

Question: What about the TGI [4] of the same molecule?
Answer: 3.74 µM

Question: And the TGI [5]?
Answer: 18.3 µM

Question: What about the TGI [6] of the same molecule?
Answer: 4.99 µM

Question: And the TGI [7]?
Answer: 5.1 µM

Question: What about the TGI [8] of the same molecule?
Answer: 16.2 µM

Question: What about the TGI [9] of the same molecule?
Answer: 7.79 µM

Question: And the TGI [10]?
Answer: 5.9 µM

Question: What about the TGI [11] of the same molecule?
Answer: 5.01 µM

Question: What about the TGI [12] of the same molecule?
Answer: 3.05 µM

Question: And the TGI [13]?
Answer: 8.79 µM

Question: What about the TGI [14] of the same molecule?
Answer: 8.49 µM

Question: And the TGI [15]?
Answer: 9.84 µM

Question: What about the TGI [16] of the same molecule?
Answer: 7.3 µM

Question: And the TGI [17]?
Answer: 6.77 µM

Question: What about the TGI [18] of the same molecule?
Answer: 4.36 µM

Question: What about the TGI [19] of the same molecule?
Answer: 3.08 µM

Question: And the TGI [20]?
Answer: > 21.4 µM

Question: And the TGI [21]?
Answer: 3.97 µM

Question: And the TGI [22]?
Answer: 4.64 µM

Question: What about the TGI [23] of the same molecule?
Answer: 3.27 µM

Question: What about the TGI [24] of the same molecule?
Answer: 8.14 µM

Question: What about the TGI [25] of the same molecule?
Answer: 4.01 µM

Question: What about the TGI [26] of the same molecule?
Answer: 7.71 µM

Question: What about the TGI [27] of the same molecule?
Answer: 5.09 µM

Question: And the TGI [28]?
Answer: 17.1 µM

Question: What about the TGI [29] of the same molecule?
Answer: > 100 µM

Question: And the TGI [30]?
Answer: 6.37 µM

Question: What about the TGI [31] of the same molecule?
Answer: 3.59 µM

Question: What about the TGI [32] of the same molecule?
Answer: 6.25 µM

Question: And the TGI [33]?
Answer: 7.58 µM

Question: What about the TGI [34] of the same molecule?
Answer: 5.44 µM

Question: And the TGI [35]?
Answer: 5.26 µM

Question: What about the TGI [36] of the same molecule?
Answer: 3.28 µM

Question: What about the TGI [37] of the same molecule?
Answer: 6.23 µM

Question: And the TGI [38]?
Answer: 9.27 µM

Question: What about the TGI [39] of the same molecule?
Answer: 5.28 µM

Question: What about the TGI [40] of the same molecule?
Answer: 14.2 µM

Question: What about the TGI [41] of the same molecule?
Answer: 3.33 µM

Question: And the TGI [42]?
Answer: 6.93 µM

Question: And the TGI [43]?
Answer: 8.4 µM

Question: And the TGI [44]?
Answer: 9 µM

Question: What about the TGI [45] of the same molecule?
Answer: 13 µM

Question: What about the TGI [46] of the same molecule?
Answer: 5.76 µM

Question: And the TGI [47]?
Answer: 4.14 µM

Question: And the TGI [48]?
Answer: 3.65 µM

Question: What about the TGI [49] of the same molecule?
Answer: > 28.6 µM

Question: What about the TGI [50] of the same molecule?
Answer: 6.2 µM

Question: What about the TGI [51] of the same molecule?
Answer: 4.46 µM

Question: And the TGI [52]?
Answer: 1.49 µM

Question: What about the TGI [53] of the same molecule?
Answer: 7.22 µM
